Test [1] concerns the target T1, C-terminal domain (CTD) of human STING (Homo sapiens, UniProt Q86WV6). Put plainly: STING binding FP assay I (fluorescence polarization competition binding). Also noted: recombinant human STING protein (155-379). To be noted: recombinant human STING protein (155-379), 35 nM STING, 4 nM fluorescein-labelled STING ligand (Probe 1), 20 min at room temperature. The protocol: The interaction between molecules and the C-terminal domain (CTD) of human STING was evaluated using a competition binding assay. In this assay, recombinant human STING protein (155-379) and a STING binding fluorescent probe were employed. Upon binding of the probe to STING, the rotation of the fluorescent probe is slowed due to the larger molecular size of the protein-bound complex. As a result, emitted light retains its plane of polarization, leading to an increase in fluorescence polarization. Molecules competing for the probe binding site displace the probe, which leads to rapid randomization of the polarization plane of the emitted light and a subsequent decrease in measured fluorescence polarization signal. Change in polarization was measured, allowing a comparative evaluation of the binding affinities of different compounds to the target protein.
The assay was performed in 96-well plates (ThermoFisher, cat.# 237108) containing 100 µl : 10 µL test compound in 10% DMSO and buffer A (150 mM NaCl, 50 mM HEPES pH 7.5, 1 mM DTT) + 90 µL prepared master mix solution of: 4 nM fluorescein-labelled STING ligand (Probe 1; synthesis described above) in buffer A + 0.055% Tween-20 (v/v) and 35 nM STING in buffer A. Post mixing, plates were agitated at 600 rpm and incubated for 20 min at room temperature. Subsequent measurements of the fluorescence polarization signal were made on a BioTek Synergy-H1 plate reader, using a polarization filter; excitation: 485/20 nm, emission: 528/20 nm) with a gain-setting of 75. IC50 values were determined using a standard non-linear regression four-parameter curve fit in Graphpad Prism.
Target sequence in this assay (Q86WV6 155-379): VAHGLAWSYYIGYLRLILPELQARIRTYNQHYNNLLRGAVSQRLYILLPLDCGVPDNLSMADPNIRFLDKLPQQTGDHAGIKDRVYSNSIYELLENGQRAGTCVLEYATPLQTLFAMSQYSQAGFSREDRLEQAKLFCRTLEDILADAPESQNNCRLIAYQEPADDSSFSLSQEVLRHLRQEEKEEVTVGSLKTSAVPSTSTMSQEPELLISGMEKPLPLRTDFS
On the technique in general: Polarisation of emitted light reports the rotation of a fluorescent probe.

For test [2], the target named is T1, C-terminal domain (CTD) of human STING. Put plainly: STING binding TR-FRET assay (CisBio Human STING WT Binding Kit). Also noted: purchased CisBio 64BDSTGPEG
Target sequence in this assay (Q86WV6 135-379 limits assumed): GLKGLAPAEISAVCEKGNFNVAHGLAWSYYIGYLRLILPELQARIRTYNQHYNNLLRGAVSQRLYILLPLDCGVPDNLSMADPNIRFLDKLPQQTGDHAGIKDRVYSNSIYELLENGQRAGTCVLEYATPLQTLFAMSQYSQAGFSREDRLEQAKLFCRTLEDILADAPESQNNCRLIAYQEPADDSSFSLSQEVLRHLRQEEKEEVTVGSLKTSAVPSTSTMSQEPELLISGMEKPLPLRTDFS
To be noted: recombinant human STING with His-tag, D2-labeled active site probe, 60 min at room temperature. The protocol:
STING binding can be determined by a time-resolved FRET assay. For instance, a STING protein having a His-tag can be used. A D2-labeled active site probe can be used to accept 620 nm emission from Anti-HIS-Tb-STING. Increased fluorescence is measured at 665 nm. Molecules that compete for the probe binding site will result in a lower 665 nm signal. The assay can be performed in low-volume white 96-well plates containing 5 µL compounds in an appropriate diluent buffer. Following 60 minutes incubation at room temperature in the dark, fluorescence emission at 665 nm is measured following 330 nm xenon flash excitation. pIC50 values can be determined using a standard four parameter curve fit.
The affinity of molecules to the C-terminal domain (CTD) of human STING was determined using a commercial Human STING WT Binding Kit (CisBio, cat.# 64BDSTGPEG). In this time-resolved FRET assay, a recombinant human STING protein construct with a His-tag was employed. When bound to STING, a D2-labeled active site probe accepts the 620 nm emission from Anti-HIS-Tb-STING and an increase in fluorescence is measured at 665 nm. Molecules that compete for the probe binding site will result in a low 665 nm signal. The assay was run in CisBio low-volume white 96-well plates (catalog# 66PL96005) containing 5 µL compounds in Diluent Buffer (supplied with the CisBio kit). A solution of 1xSTING, 1x Anti-HIS-Tb and 1X D2-probe in TB detection buffer (kit supplied) was added to the plate. Plates were centrifuged for 2 min at 500 rpm, incubated for 60 min at room temperature in the dark, and then fluorescence emission at 665 nm following 330 nm xenon flash excitation on an BioTek synergy H1 multimode reader (Agilent) was measured. The plC50 values were determined using a standard four parameter curve fit in GraphPad Prism.
Background: TR-FRET usually uses a lanthanide donor and a delayed reading to cut background.

A further test addresses T2, STING (Homo sapiens, UniProt Q86WV6).
T2 construct: endogenous in cells; host or cells: human skin fibroblasts
The test is described as follows: Human FB STING antagonist assay (IFN-a/b release). To be noted: Human skin fibroblasts, 2h pre-treatment, 300 nM GSK STING agonist (CAS number: 2138299-34-8) for 20 h, release of IFN-a/b by HEK-Blue IFN-α/β bioassay. The class given is cell-based. On the procedure:
STING antagonist activity can be determined by a human fibroblast antagonist assay. For this, human skin fibroblasts are pre-treated for 2h with a serial dilution of the compound, and are then stimulated for 20 hours with 300 nM STING agonist (e.g. from GSK, CAS number: 2138299-34-8). Supernatants are then harvested and assessed for IFN-a/b release, which indicates STING activation. IFN-a/b concentration in the supernatant is determined, e.g. using an IFN-α/β bioassay. IC50 values are calculated using a non-linear regression fitting, variable slope (4 parameters).
Human skin fibroblasts were pre-treated for 2h with a serial dilution of test compound followed by stimulation with mock or 300 nM GSK STING agonist (CAS number: 2138299-34-8). Supernatants were harvested after 20 h of STING agonist stimulation. Release of IFN-a/b was determined using HEK-Blue IFN-α/β bioassay (Invivogen). Cellular viability was assessed using Alamar Blue HS assay. IC50 values were estimated using a non-linear regression fitting, variable slope (4 parameters) in GraphPad Prism 9.3.1.

In general, IC50 refers to the concentration at which inhibition is half-maximal.

T2 sequence (Q86WV6 whole entry): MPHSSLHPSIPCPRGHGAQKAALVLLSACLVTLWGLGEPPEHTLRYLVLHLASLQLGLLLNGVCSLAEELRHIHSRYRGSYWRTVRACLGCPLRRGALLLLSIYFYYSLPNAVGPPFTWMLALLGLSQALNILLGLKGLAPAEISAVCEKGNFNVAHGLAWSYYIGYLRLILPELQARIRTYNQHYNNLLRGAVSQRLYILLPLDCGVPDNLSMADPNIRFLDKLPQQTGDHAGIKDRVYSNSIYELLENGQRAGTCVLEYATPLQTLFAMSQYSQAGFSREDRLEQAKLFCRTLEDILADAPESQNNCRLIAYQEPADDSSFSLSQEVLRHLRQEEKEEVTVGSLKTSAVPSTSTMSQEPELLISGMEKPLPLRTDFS

As for `CCn1nc(C)cc1C(=O)N=c1n(C)c2cc(C(N)=O)ccc2n1CCC(CCn1c(=NC(=O)c2cc(C)nn2CC)n(C)c2cc(C(N)=O)ccc21)OCC(=O)O` (stereo not shown) [Example 3, (3-{5-Carbamoyl-2-[(1-ethyl-3-methyl-5-pyrazolyl)carbonylimino]-3-methyl-2,3-dihydro-1H-1,3-benzimidazol-1-yl}-1-(2-{5-carbamoyl-2-[(1-ethyl-3-methyl-5-pyrazolyl)carbonylimino]-3-methyl-2,3-dihydro-1H-1,3-benzimidazol-1-yl}ethyl)propoxy)acetic acid], the figures for the IC50 in test [1] and in test [2] were less than 30 nM and 0.452 nM, respectively.

In the case of `CCn1nc(C)cc1C(=O)N=c1n(C)c2cc(C(N)=O)ccc2n1CCC(CCn1c(=NC(=O)c2cc(C)nn2CC)n(C)c2cc(C(N)=O)ccc21)OCC(=O)NC(C)C` (stereo not shown) [Example 5, 1-{3-[(N-lsopropylcarbamoyl)methoxy]-5-{5-carbamoyl-2-[(1-ethyl-3-methyl-5-pyrazolyl)carbonylimino]-3-methyl-2,3-dihydro-1H-1,3-benzimidazol-1-yl}pentyl}-2-[(1-ethyl-3-methyl-5-pyrazolyl)carbonylimino]-3-methyl-2,3-dihydro-1H-1,3-benzimidazole-5-carboxamide], the results for the IC50 in test [1] and in test [2] were less than 30 nM and 0.38 nM, respectively.

`CCn1nc(C)cc1C(=O)N=c1n(C)c2cc(C(N)=O)ccc2n1CCC(CCn1c(=NC(=O)c2cc(C)nn2CC)n(C)c2cc(C(N)=O)ccc21)OCC(=O)Nc1ccccc1` (stereo not shown) [Example 6, 1-{3-[(N-Phenylcarbamoyl)methoxy]-5-{5-carbamoyl-2-[(1-ethyl-3-methyl-5-pyrazolyl)carbonylimino]-3-methyl-2,3-dihydro-1H-1,3-benzimidazol-1-yl}pentyl}-2-[(1-ethyl-3-methyl-5-pyrazolyl)carbonylimino]-3-methyl-2,3-dihydro-1H-1,3-benzimidazole-5-carboxamide]: the IC50 on STING is 7600 nM; in test [1] it was less than 30 nM; in test [2], 0.6 nM.

Turning to `CCn1nc(C)cc1C(=O)N=c1n(C)c2cc(C(N)=O)ccc2n1CCC(CCn1c(=NC(=O)c2cc(C)nn2CC)n(C)c2cc(C(N)=O)ccc21)OCC(=O)N1CCOCC1` (stereo not shown) [Example 7, 1-(5-{5-Carbamoyl-2-[(1-ethyl-3-methyl-5-pyrazolyl)carbonylimino]-3-methyl-2,3-dihydro-1H-1,3-benzimidazol-1-yl}-3-(2-morpholino-2-oxoethoxy)pentyl)-2-[(1-ethyl-3-methyl-5-pyrazolyl)carbonylimino]-3-methyl-2,3-dihydro-1H-1,3-benzimidazole-5-carboxamide], the values for the IC50 (on STING; in test [1]; in test [2]) were 3500 nM, less than 30 nM and 0.267 nM, respectively.

Regarding `CCn1nc(C)cc1C(=O)N=c1n(C)c2cc(C(N)=O)ccc2n1CCC(CCn1c(=NC(=O)c2cc(C)nn2CC)n(C)c2cc(C(N)=O)ccc21)OCC(=O)N1CCc2cc(OC)ccc2C1` (stereo not shown) [Example 9, 1-(5-{5-Carbamoyl-2-[(1-ethyl-3-methyl-5-pyrazolyl)carbonylimino]-3-methyl-2,3-dihydro-1H-1,3-benzimidazol-1-yl}-3-[2-(6-methoxy-1,2,3,4-tetrahydro-2-isoquinolyl)-2-oxoethoxy]pentyl)-2-[(1-ethyl-3-methyl-5-pyrazolyl)carbonylimino]-3-methyl-2,3-dihydro-1H-1 ,3-benzimidazole-5-carboxamide], the IC50 at STING is 13100 nM; in test [1], less than 30 nM; in test [2] it was 0.665 nM.

For the origin of these results see patent publication EP4534147A1, “STING ANTAGONIST COMPOUNDS” (Sulis Therapeutics ApS, priority 2023, dated 2025).
